≈ marks a conversion by molar mass, not a printed value.
Assays:
[1] = aqueous solubility; conditions: for solubility: aqueous; for solubility and stability of the crystalline salt: single polymorph crystalline solids
[2] = conversion of prodrug to parent drug in vivo
[3] = stability in solution

SMILES | solubility ([1]; pH 4.3, aqueous buffer) [µg/mL] | solubility ([1]; pH 7, aqueous buffer) [µg/mL] | conversion to parent drug in vivo [2] | stability in solution [3] | solubility and stability of the crystalline salt [1]
C[C@@H](c1nc(-c2ccc(C#N)cc2)cs1)C(Cn1cncn1)(OCOP(=O)(O)O)c1ccc(F)cc1F (stereo partly drawn) [Example 2, (2R,3R)-3-[4-(4-cyanophenyl)thiazol-2-yl]-2-(2,4-difluorophenyl)-1-(1H-1,2,4,- triazol-1-yl)-2-[(dihydrogenphosphonoxy)methoxy]butane] | 5000 to 6000 (≈ 9.13 to 11 mM) | > 10000 | readily converted to parent drug in vivo | stable in solution | 
C[C@@H](c1nc(-c2ccc(C#N)cc2)cs1)[C@@](Cn1cncn1)(OCOP(=O)(O)O)c1ccc(F)cc1F.NCCCC[C@H](N)C(=O)O.NCCCC[C@H](N)C(=O)O [Example 3, Bis lysine salt of (2R,3R)-3-[4-(4-cyanophenyl)thiazol-2-yl]-2-(2,4-difluorophenyl)-1-(1H-1,2,4-triazol-1-yl)-2-[(dihydrogenphosphonoxy)methoxy]butane] |  |  |  |  | good solubility and stability
CC(C)(C)N.C[C@@H](c1nc(-c2ccc(C#N)cc2)cs1)[C@@](Cn1cncn1)(OCOP(=O)(O)O)c1ccc(F)cc1F [Example 4, Tert-butyl amine salt of (2R,3R)-3-[4-(4-cyanophenyl)thiazol-2-yl]-2-(2,4-difluorophenyl)-1-(1H-1,2,4-triazol-1-yl)-2-[(dihydrogenphosphonoxy)methoxy]butane] |  |  |  |  | good solubility and stability

From patent US6362172B1, “Water soluble prodrugs of azole compounds” (Bristol-Myers Squibb Company, priority 2000, dated 2002)
